Assay results published in PMC8192908 (Scientific Reports, 2021).
Read-outs that look alike come from different tables or passages of the source. Marks after values point to notes of the source that are not given here.

Tests used:
ejaculated spermatozoa = assay: Sperm motility in ejaculated spermatozoa (swim-up, manual assessment); type: cell-based, human; details: PTXm-1 0.25 mM; for progressive motility vs controls / total motility vs controls: 1 h; for progressive motility vs controls / total motility vs controls / percentage of total motile spermatozoa vs controls: PTX 1 mM; for percentage of total motile spermatozoa vs controls: 1 h and 24 h
Procedure: (§1) For the study, subjects with 2–7 days of sexual abstinence were asked to provide their ejaculates by masturbation. After the completion of semen analysis (WHO, 2010), the leftover semen sample from each subject was used for experiment within 1 h of collection and was equally divided into four groups. The semen samples were washed twice with EBSS media (with bicarbonate buffer) by centrifuging at 500 g for 8 min to remove the seminal plasma. […] The EBSS medium used was with bicarbonate buffer. The samples were incubated for 1 h at 37 °C and 5% CO2. The overlay containing motile fraction of capacitated spermatozoa were collected carefully without disturbing the pellet and used for further analysis. The swim-up fraction containing motile spermatozoa were assessed for motility using manual method and sperm motion characteristics using computer assisted sperm analysis (CASA) as described earlier. […] Percentage of spermatozoa with total and progressive motility was calculated. For CASA, 8 µL sperm suspension was placed on a clean microscopic slide, covered with coverslip (18 mm × 18 mm).

human lymphocytes cells = details: cited from earlier work
[1] = tested on: spermatozoa from asthenozoospermic semen samples; assay: Sperm kinematics by computer assisted semen analysis (CASA); type: cell-based, human; details: 1 h after incubation; PTX 1 mM, PTXm-1 0.25 mM; mean ± SE, N = 28
Procedure: as §1

mouse bone marrow cells [2] = details: cited from earlier work
mouse bone marrow cells [3] = details: cited from earlier work; remark: listed apart in the source
testicular spermatozoa = assay: Twitching motility of testicular spermatozoa; type: cell-based, human; details: PTX 1 mM, PTXm-1 0.25 mM; for spermatozoa with twitching motility vs control: increased incubation time (1 h)
Description: Testicular tissue from men diagnosed with prostate cancer and admitted for orchiectomy (N = 8, age 74.33 ± 5.61 years) were collected from Urology operation theater in sterile PBS. The testis was transferred to Petri dish, washed in phosphate buffered solution (PBS) and cut into small pieces. Seminiferous tubule contents were released into the Petri dish containing EBSS medium with 0.1% BSA by milking the seminiferous tubules with the help of with the help of sterile glass slides. The cell suspension was screened for the presence of testicular spermatozoa under inverted microscope (200 × magnification). The cell suspension was divided into four equal parts- (a) Control (C): […] (b) Vehicle control (VC): […] The testicular sperm suspension was processed by discontinuous gradient technique using 40% and 80% density solutions ([…], Germany). The discontinuous gradient column was prepared by adding 1 mL of 80% and 40% gradient solutions sequentially in a sterile test tube. The testicular cell suspension was carefully added above the gradients and centrifuged at 500 g for 20 min. The pellet obtained after centrifugation was further washed by centrifuging at 400 g for 8 min twice.

PDE10A-PTXm-1 complex = target: T1, PDE10A-PTXm-1 complex (Homo sapiens, UniProt Q9Y233); assay: Competitive ITC: PTX titrated against PDE10A-PTXm-1 complex; type: binding
T1 construct: Catalytic domain of each protein was cloned between BamHI and XhoI restriction sites in; 6xHis-SUMO (N, cleaved yes); made in house; host or cells: E. coli Rosetta 2 (DE3)
T1 sequence (Q9Y233 718-1035 limits assumed, one chain of several): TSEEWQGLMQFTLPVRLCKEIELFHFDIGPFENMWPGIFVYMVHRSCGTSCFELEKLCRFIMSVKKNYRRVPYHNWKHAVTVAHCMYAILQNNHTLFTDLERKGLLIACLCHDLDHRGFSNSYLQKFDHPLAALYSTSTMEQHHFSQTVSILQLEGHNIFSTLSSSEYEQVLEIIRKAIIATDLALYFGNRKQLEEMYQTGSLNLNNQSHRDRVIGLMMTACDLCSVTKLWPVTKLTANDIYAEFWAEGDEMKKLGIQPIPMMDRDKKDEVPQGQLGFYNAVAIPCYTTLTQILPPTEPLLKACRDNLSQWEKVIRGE

[4] = tested on: spermatozoa from normozoospermic samples; assay: Sperm DNA integrity by TUNEL assay; details: 24 h in vitro incubation; PTX 1 mM, PTXm-1 0.25 mM; control 6.5%
PDE4A = target: T2, PDE4A (Homo sapiens, UniProt P27815); assay: ITC binding of PTX to the catalytic domain of PDE4A
T2 construct: Catalytic domain of each protein was cloned between BamHI and XhoI restriction sites in; 6xHis-SUMO (N, cleaved yes); made in house; host or cells: E. coli Rosetta 2 (DE3)
T2 sequence (P27815 357-686 limits assumed): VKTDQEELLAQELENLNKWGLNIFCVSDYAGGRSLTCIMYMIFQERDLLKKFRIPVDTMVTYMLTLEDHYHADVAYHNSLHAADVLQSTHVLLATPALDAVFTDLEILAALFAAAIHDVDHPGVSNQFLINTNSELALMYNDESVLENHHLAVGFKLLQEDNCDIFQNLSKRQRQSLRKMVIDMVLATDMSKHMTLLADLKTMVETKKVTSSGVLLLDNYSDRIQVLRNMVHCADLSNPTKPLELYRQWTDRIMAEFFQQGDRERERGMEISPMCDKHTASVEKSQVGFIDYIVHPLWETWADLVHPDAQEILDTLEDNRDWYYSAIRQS
Description: (§2) Supplementary Materials and Methods
(§3) Cloning, expression and purification of catalytic domains of PDE4A, […]
(§4) The full length human PDE4A (1005 bp), PDE4D (981 bp) and PDE10A (957 bp) cDNAs, cloned in pET28a(+) expression vector, were purchased from Biomatik, Canada.
(§5) Catalytic domain of each protein was cloned between BamHI and XhoI restriction sites in 6x-His-SUMO-tagged bacterial expression vector. The catalytic domain constructs of PDE4A, PDE4D and PDE10A were transformed in E. coli Rosetta 2 (DE3) competent cells for expression. After growing the transformed cells at 37 °C, till the OD 600nm reached 0.5-0.7, the culture containing constructs of PDE4A and PDE4D were induced with 0.1 mM IPTG and the cultures were incubated at 15 °C for 16-18 h, whereas those with PDE10A constructs were induced with 0.5 mM at incubated for 35 -40 h followed by cell harvesting. Harvested cells were suspended in lysis buffer (500 mM NaCl, 50 mM Tris - Cl pH 8.0, 10 mM Imidazole, 3 mM β-mercaptoethanol) and lysed by sonication (Qsonica). The lysates were cleared by centrifugation at 20,000g for 1h and supernatant was passed through Ni-NTA affinity column (His-Trap, GE Healthcare). Eluted proteins were subjected to salt exchange with a buffer containing 100 mM NaCl, 50 mM Tris-Cl pH 8.0, 3 mM β-mercaptoethanol. The collected proteins were further purified using ion - exchange chromatography (Q column, Hi-Trap, GE Healthcare) followed by overnight treatment with ULP1 at 4 °C to cleave 6xHis-SUMO tag. The tag was separated from proteins by a subsequent Ni-NTA purification. The proteins were further purified on size exclusion 16/600 200 pg column (GE Healthcare) pre-equilibrated with a buffer (100 mM […]
(§6) NaCl, 50 mM Tris pH 8.0, 5% Glycerol, 3 mM β-mercaptoethanol). After purifying with a gel filtration column, purity was determined on 12% SDS -PAGE and all three proteins […]
(§7) concentrated to 20mg/ml, flash cooled with liquid nitrogen and stored at -80°C.
(§8) Isothermal titration calorimetry (ITC) binding studies […]
(§9) of PDE4A, PDE4D and PDE10A were determined at 25°C, using Affinity ITC (TA instruments). […]

PDE4D = target: T3, PDE4D (Homo sapiens, UniProt Q08499); assay: ITC binding of PTX to the catalytic domain of PDE4D
T3 construct: Catalytic domain of each protein was cloned between BamHI and XhoI restriction sites in; 6xHis-SUMO (N, cleaved yes); made in house; host or cells: E. coli Rosetta 2 (DE3)
T3 sequence (Q08499 386-715 limits assumed): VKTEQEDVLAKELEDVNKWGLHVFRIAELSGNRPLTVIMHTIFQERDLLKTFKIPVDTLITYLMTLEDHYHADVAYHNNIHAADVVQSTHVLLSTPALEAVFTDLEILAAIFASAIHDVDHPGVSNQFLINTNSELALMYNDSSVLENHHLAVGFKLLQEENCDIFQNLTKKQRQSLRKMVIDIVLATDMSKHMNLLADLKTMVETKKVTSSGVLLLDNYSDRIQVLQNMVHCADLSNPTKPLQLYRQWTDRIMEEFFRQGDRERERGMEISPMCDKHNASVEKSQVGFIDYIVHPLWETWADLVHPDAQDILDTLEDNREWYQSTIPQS
Description: as §2, §3, §4, §5, §6, §7, §8, §9

[5] = asthenozoospermic samples, 24 h
[6] = 15 min after incubation, control 5.06 ± 0.98%

For `COc1ccc2cc(/C=C/C(=O)CCCCn3c(=O)c4c(ncn4C)n(C)c3=O)ccc2c1` [PTXm-1], the “progressive motility vs controls” value (ejaculated spermatozoa; asthenozoospermic samples) was “significantly higher”, the “total motility vs controls” value (ejaculated spermatozoa; asthenozoospermic samples) was “significantly higher” and the “percentage of progressively motile spermatozoa vs PTX” value (ejaculated spermatozoa; [5]) was “considerably (P < 0.001) higher percentage”. The “percentage of total motile spermatozoa vs PTX” value (ejaculated spermatozoa; [5]) was “considerably (P < 0.001) higher percentage”, the “percentage of total motile spermatozoa vs controls” value (ejaculated spermatozoa; normozoospermic samples) was “increased” and the “percentage of progressively motile spermatozoa vs C, VC and PTX” value (ejaculated spermatozoa; normozoospermic samples, 24 h) was “higher percentage of progressively motile spermatozoa”. The “genotoxic effect on human lymphocytes cells in vitro” value (human lymphocytes cells) was “significantly lower genotoxic effect”, the ALH [1] was 5.21 ± 0.09^b µm and the BCF [1] was 9.67 ± 0.19^b,c,d Hz. The LIN [1] was 27.78 ± 1.02, the VAP [1] was 45.90 ± 0.97 µm/s and the VCL [1] was 109.6 ± 3.27^a µm/s. The VSL [1] was 27.67 ± 3.79 µm/s, the WOB [1] was 41.87 ± 0.70^b and the “genotoxic effect on mouse bone marrow cells in vivo” value (mouse bone marrow cells [2]) was “significantly lower genotoxic effect”. For the same molecule, the “cytotoxic effect on mouse bone marrow cells” value (mouse bone marrow cells [3]; mouse, in vivo) was “do not have any cytotoxic effect”, the “spermatozoa with twitching motility” value (testicular spermatozoa; [6]) was 9.95 ± 0.79% and the “spermatozoa with twitching motility” value (testicular spermatozoa; 24 h incubation) was 13.39 ± 0.65%. For the same molecule, the “spermatozoa with twitching motility vs control” value (testicular spermatozoa) was “significantly higher (P < 0.001)” and the “decrease of the binding affinity of PTX towards PDE10A in presence of PTXm-1” value (PDE10A-PTXm-1 complex; PDE10A-PTXm-1 2:1 molar ratio) was “~ eight-fold decrease”.

In the case of `CC(=O)CCCCn1c(=O)c2c(ncn2C)n(C)c1=O` [PTX, pentoxifylline], the “progressive motility vs controls” value (ejaculated spermatozoa; asthenozoospermic samples) is reported as “significantly higher”, the “total motility vs controls” value (ejaculated spermatozoa; asthenozoospermic samples) is reported as “significantly higher” and the “percentage of total motile spermatozoa vs controls” value (ejaculated spermatozoa; normozoospermic samples) is reported as “increased”. For the same molecule, the “spermatozoa with damaged DNA (TUNEL)” value [4] was 10.25%, the “change in enthalpy (ΔH)” value (PDE4A) was ~ -8.3±0.30 kcal/mol and the “change in entropy (ΔS)” value (PDE4A) was ~ -11.90 cal/mol.K. The “stoichiometry (N)” value (PDE4A) was ~ 1.08±0.03, the ALH [1] was 5.04 ± 0.06^b µm and the BCF [1] was 8.56 ± 0.17 Hz. For the same molecule, the LIN [1] was 28.47 ± 1.01, the STR [1] was 66.94 ± 0.98^b,c and the VAP [1] was 47.89 ± 0.96 µm/s. The VCL [1] was 112.60 ± 3.10^b µm/s, the VSL [1] was 28.34 ± 4.67 µm/s and the WOB [1] was 42.54 ± 0.61^b. For the same molecule, the “cytotoxic effect on mouse bone marrow cells” value (mouse bone marrow cells [3]) was “do not have any cytotoxic effect”, the “change in enthalpy (ΔH)” value (PDE4D) was ~ -10.56±1.07 kcal/mol and the “change in entropy (ΔS)” value (PDE4D) was ~ -16.47 cal/mol.K. For the same molecule, the “stoichiometry (N)” value (PDE4D) was ~ 0.93±0.07, the “spermatozoa with twitching motility” value (testicular spermatozoa; [6]) was 11.78 ± 1.36% and the “spermatozoa with twitching motility” value (testicular spermatozoa; 24 h incubation) was 7.90 ± 1.06%. The “spermatozoa with twitching motility vs control” value (testicular spermatozoa) was “significantly higher (P < 0.001)” and the Kd (PDE10A-PTXm-1 complex; PDE10A-PTXm-1 complex with 2:1 molar ratio) was 350 µM.
